One experiment concerns Hs695T. Description: Cell proliferation IC50 (Cell Titer Glo). It is filed as cell-based. The note with it: Homo sapiens, Hs 695T, 96 h, read-out: IC50 cell proliferation. The method, then:
(§1) IC50 Cell proliferation measurements. Cell proliferation was assessed in the 41 tumor cell lines set forth in Table 2 after 4 days of continuous exposure to either the ERK1/2 inhibitor, compound a or the MEK inhibitor compound b (PD0325901) using Promega Cell Titer Glo reagent (Promega Corp, Madison, Wis.). Promega's CellTiter-Glo™ Luminescent Cell Viability Assay is a sensitive method for assaying cell proliferation using a stable form of luciferase to measure ATP as an indicator of viable cells. This reagent allows a homogeneous method of determining cell number by quantitation of ATP. The luciferase luminescent signal produced is proportional to the number of viable cells present in culture.
(§2) A 1000× compound dose response curve, containing 8 dilutions of each compound, was prepared on a 96-well plate. Compounds were diluted in 100% DMSO to the following (1000×) concentrations: compound b: 1000 μM, 333 μM, 111 μM, 37 μM, 12 μM, 4.1 μM, 1.4 μM and 0.5 μM; compound a: 3000 μM, 1000 μM, 333 μM, 111 μM, 37 μM, 12 μM, 4.1 μM and 1.4 μM. This compound source plate was sealed and kept frozen between uses.
(§3) Cells were grown in RPMI 1640 medium supplemented with 10% Fetal Bovine Serum, 2 mM Glutamine and non-essential amino acids or DMEM/F12 Media containing the same supplements. On day zero, cells were trypsinized, counted and plated into wells of a 96-well Wallac TC Isoplate (Perkin-Elmer Wallac, Gaithersburg, Md.) at a density of 1500-2000 cells per well in 50 μl of complete media. An additional 6-8 replicate well of the cells at the same density were plated on a separate Wallac TC Isoplate. This plate was developed on day 1 to determine the cell-growth baseline.
(§4) On day 1 of treatment, compound was diluted to 2× in media and immediately added to the cells as follows: one ml of media was added to each well of a deep-well 96-well plate and 2 μl of 1000× compound was added with mixing to make 2× compound in media. 50 μl of the media containing 2× compound was added to the cell plates in duplicate points so the final concentrations for each well were as outlined in Table 1. The plates were then returned to a 37° C. incubator and left undisturbed for 4 days. The day 1 (baseline) plates were developed by first adding 50 μl media (without compound) to bring the volume in each well to 100 μl, then adding 100 μl of Cell Titer Glo reagent (as below).
(§5) After four days of treatment, the plates were developed with Cell Titer Glo (CTG) reagent (Promega Corp.; Madison, Wis.). Reagent was reconstituted as described in the product insert. 100 μl of reagent was added to all treatment and control wells and the plates were gently shaken for 5 minutes then incubated an additional 5 minutes before reading in an Analyst AD (Molecular Devices Corporation; Sunnyvale, Calif.) using the Luminescence settings.
(§6) Data was analyzed in Excel using XLfit 4.2, fit model #205 (Dose Response One Site)
(In general: In ATP-based viability assays light output follows the ATP content of the culture.)

The subject of another experiment is Hs746T. Description: Cell proliferation IC50 (Cell Titer Glo). The note with it: Homo sapiens, 96 h, read-out: IC50 cell proliferation. It is filed as cell-based. The method, then:
as §1, §2, §3, §4, §5, §6

Another experiment deals with M14. Description: Cell proliferation IC50 (Cell Titer Glo). It is filed as cell-based. The note with it: Homo sapiens, read-out: IC50 cell proliferation. The method, then: as §1, §2, §3, §4, §5, §6
A further experiment concerns MB-453. Description: Cell proliferation IC50 (Cell Titer Glo). The note with it: Homo sapiens, 96 h, read-out: IC50 cell proliferation. It is filed as cell-based. Here is the method:
as §1, §2, §3, §4, §5, §6

In the next experiment the test system is SK-Mel-28. Description: Cell proliferation IC50 (Cell Titer Glo). It is filed as cell-based. Particulars: Homo sapiens, read-out: IC50 cell proliferation. Here is the method: as §1, §2, §3, §4, §5, §6
The next experiment has as its system SK-Mel-5. Description: Cell proliferation IC50 (Cell Titer Glo). Format: cell-based. Particulars: Homo sapiens, read-out: IC50 cell proliferation. The method, then: as §1, §2, §3, §4, §5, §6
Another experiment concerns WM-115. Description: Cell proliferation IC50 (Cell Titer Glo). The note with it: 4 days continuous exposure. It is filed as cell-based, human. Here is the method: as §1, §2, §3, §4, §5, §6
For experiment [1], the system named is Cell lines with either the heterozygote V600E BRAF mutation or wild type BRAF genotype. Description: Cell proliferation IC50 (Cell Titer Glo), summary by genotype. Format: cell-based. Particulars: Homo sapiens, read-out: IC50 cell proliferation. Here is the method: as §1, §2, §3
(§7) On day 1 of treatment, compound was diluted to 2× in media and immediately added to the cells as follows: one ml of media was added to each well of a deep-well 96-well plate and 2 μl of 1000× compound was added with mixing to make 2× compound in media. 50 μl of the media containing 2× compound was added to the cell plates in duplicate points so the final concentrations for each well were as outlined in Table 1. The plates were then returned to a 37° C. incubator and left undisturbed for 4 days. […]
(§8) After four days of treatment, the plates were developed with Cell Titer Glo (CTG) reagent (Promega Corp.; Madison, Wis.). […] 100 μl of reagent was added to all treatment and control wells and the plates were gently shaken for 5 minutes then incubated an additional 5 minutes before reading in an Analyst AD (Molecular Devices Corporation; Sunnyvale, Calif.) using the Luminescence settings.
as §6

The subject of experiment [2] is V600E BRAF homozygous genotype cell lines. The description is as above. It is filed as cell-based. Particulars: Homo sapiens, read-out: IC50 cell proliferation. The method, then:
as §1, §2, §3, §7, §8, §6

The test system of the next experiment is WM-266-4. Description: Cell proliferation IC50 (Cell Titer Glo). Format: cell-based, human. The note with it: 4 days continuous exposure. The method, then:
as §1, §2, §3, §4, §5, §6

Read-outs that look alike come from different tables or passages of the source. Bounds are passed on as bounds.

On to `O=C(Nc1ccc2[nH]nc(-c3ccncc3)c2c1)C1CCN(CC(=O)N2CCN(c3ccc(-c4ncccn4)cc3)CC2)C1` (stereo not shown) [cpd. a], for which the IC50 came out at 165 nM in the experiment with Hs695T (Hs695T, Melanoma, BRAF V600E Heterozygous, 4 days continuous exposure); 125 nM in the experiment on Hs746T (Gastric, BRAF V600V Wild type, 4 days continuous exposure); 40 nM with M14 (96 h, M14, Melanoma, BRAF V600E Homozygous, 4 days continuous exposure); 672 nM in the experiment with MB-453 (MB-453, Breast, BRAF V600E Heterozygous, 4 days continuous exposure); 85 nM in the experiment on SK-Mel-28 (96 h, SK-Mel-28, Melanoma, BRAF V600E Homozygous, 4 days continuous exposure); 66 nM in the experiment on SK-Mel-5 (96 h, SK-Mel-5, Melanoma, BRAF V600E Heterozygous, 4 days continuous exposure). Further, the IC50 with WM-115 (Homo sapiens, WM-115, 96 h, WM-115, Melanoma, BRAF V600D Heterozygous, read-out: IC50 cell proliferation) is less than 100 nM; in the experiment with WM-115 (WM-115, Melanoma, BRAF V600D Heterozygous, read-out: IC50 cell proliferation), 60 nM; in experiment [1] (25 of the 32 cell lines tested (heterozygote V600E or wild type BRAF)) it was greater than 100 nM; in experiment [2] (nine of the nine V600E BRAF homozygous genotype cell lines tested) it was less than 100 nM.

For the compound `O=C(NOC[C@H](O)CO)c1ccc(F)c(F)c1Nc1ccc(I)cc1F` [cpd. b, PD0325901], the IC50 in the experiment on Hs695T was 29 nM; with Hs746T it was 7 nM; in the experiment on M14 (M14, 96 h) it was 3 nM; in the experiment with MB-453, 1000 nM; in the experiment with SK-Mel-28 (SK-MEL-28, 96 h) it was 10 nM; with SK-Mel-5 (SK-MEL-5, 96 h), 8 nM. Also, the IC50 was less than 10 nM in the experiment on WM-115 (Homo sapiens, WM-115, 96 h, read-out: IC50 cell proliferation, WM-115, Melanoma, BRAF V600D Heterozygous); 10 nM in the experiment on WM-115 (read-out: IC50 cell proliferation, WM-115, Melanoma, BRAF V600D Heterozygous); less than 10 nM in the experiment on WM-266-4 (Homo sapiens, WM 266-4, 96 h, read-out: IC50 cell proliferation, WM-266-4, Melanoma, BRAF V600D Heterozygous); 10 nM with WM-266-4 (read-out: IC50 cell proliferation, WM-266-4, Melanoma, BRAF V600D Heterozygous); greater than 10 nM in [1]; no more than 10 nM in experiment [2].
